Values joined by “and” are separate entries in the source; they are usually repeats but may differ in a detail not shown here. Equal entries are not always repeated. “Also recorded” adds a separate entry of the source. Where two headings read alike, the source gives them in different places.
Experiments:
mouse TNF [1] = target: T1, mouse TNF (Mus musculus, UniProt P06804); assay: TNF reporter gene assay HEK-293, mouse TNF; assay type: cell-based; settings: HEK-293 NF-kB reporter gene assay
T1 construct: stabilise an asymmetrical form of the soluble TNF trimer
T1 sequence (P06804 80-235 limits assumed): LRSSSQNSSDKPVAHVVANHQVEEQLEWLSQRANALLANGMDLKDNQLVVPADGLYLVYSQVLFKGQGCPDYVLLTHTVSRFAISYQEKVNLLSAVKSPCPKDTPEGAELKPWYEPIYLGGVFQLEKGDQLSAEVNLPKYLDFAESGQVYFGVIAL
Description: (§1) Stimulation of HEK-293 cells by TNF leads to activation of the NF-κB pathway. The HEK-Blue^TM CD40L SEAP (secreted embryonic alkaline phosphatase) reporter cell line used to determine TNF activity (InvivoGen, #hkb-CD40, cells were described as mycoplasma free when purchased and were tested using Mycoalert [Lonza] after each batch of assay vial preparation). Compounds were titrated in DMSO and pre-incubated with TNF at a concentration giving half maximal response (10 pM for human or 20 pM for mouse) or the anti-human TNFR1 agonist antibody (R&D Systems. #AF 225) for 1 h. Cells were added to the compound/stimulus mixture and further incubated for 18 h. SEAP was measured using the colorimetric substrate HEK-Blue Detect^TM or QUANTI-Blue^TM from InvivoGen. Percentage inhibitions for compound dilutions were calculated between a DMSO control and maximum inhibition (by excess anti-TNF biologic, or NF-κB inhibitor–TPCA-1 [Tocris #2559, R&D Systems]). The IC50 was determined as the point of inflexion between the fitted minimum and maximum of the compound dose response curve, calculated using 4PL fitted curve. Mean IC50s are reported as a mean of at least two experiments. Dose response curves for TNF and the anti-human TNFR1 agonist antibody are shown in Supplementary Fig. 9.

TNF (L57F) = target: T2, TNF (L57F) (Homo sapiens, UniProt P01375, L133F); assay: HEK reporter gene assay, L57F TNF; assay type: cell-based; settings: 10 pM L57F TNF; HEK NFκΒ reporter
T2 construct: Human TNF (CID2043, UniProt P01375 residues 77–233); 6XHis-Smt3 (N, cleaved yes); host or cells: E. coli
T2 sequence (P01375 77-233 L133F): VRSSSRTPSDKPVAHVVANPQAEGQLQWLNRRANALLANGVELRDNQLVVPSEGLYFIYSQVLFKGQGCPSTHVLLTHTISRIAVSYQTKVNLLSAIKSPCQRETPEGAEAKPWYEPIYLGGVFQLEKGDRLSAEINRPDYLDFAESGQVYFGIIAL
Description: as §1, with “9. […]” for “9.”
In this assay reduction is luminescence is due to cell killing by TNF and inhibition causes increased luminescence. […]

mouse TNF [2] = target: T1, mouse TNF; assay: Mouse TNF induced neutrophil recruitment in vivo; settings: for CD45+ GR-1+ cells/mL in the peritoneal cavity: mouse TNF, individual mice
Description: All in vivo studies were reviewed by an internal Ethical Review Body (ERB) and conducted in accordance with the Animals (Scientific Procedures) Act 1986, EU Directive 2010/63/EU. […] Anti-TNFα biologics, CDP571[21] (10 mg/kg) and etanercept (30 mg/kg), diluted in PBS, were dosed intravenously prior to human and mouse TNF challenge. Two hours after the TNF challenge, mice were sacrificed and the peritoneal cavity lavaged with 3 mL of FACS buffer. An aliquot (0.3 mL) of lavage fluid was used to assess the number CD45^+GR1^+ cells by flow cytometry. Briefly, the cells were treated with ACK lysis buffer, washed and suspended in FACS buffer prior to staining with FITC anti-mouse CD45 and PE anti-mouse GR1. Data are shown as mean ± standard error of the number of CD45^+GR-1^+ cells. Statistical significance (*p < 0.05, **p < 0.01, ****p < 0.0001) was determined using one-way ANOVA with Dunnett’s multiple comparison test.

[3] = Blood exposure of UCB-9260 in the mouse models; assay type: in vivo; settings: for concentration at 1 h: zymosan model
[4] = 150mg/kg, CAIA model, individual mice

Cc1ccc(C)c(Cn2c(C(O)c3ccncc3)nc3ccc(-c4cnn(C)c4)cc32)c1 (centres unmarked) [UCB-9260]
IC50 (mouse TNF [1]): 95 nM | inhibition of L57F TNF (TNF (L57F)): did not inhibit; also recorded: no activity | CD45+ GR-1+ cells/mL in the peritoneal cavity (mouse TNF [2]; 10mg/kg): 36683.8 cells/mL and 23446.5 cells/mL and 65459.0 cells/mL and 42287.7 cells/mL and 32860.3 cells/mL and 46170.3 cells/mL and 36366.5 cells/mL | CD45+ GR-1+ cells/mL in the peritoneal cavity (mouse TNF [2]; 30mg/kg): 68892.4 cells/mL and 37218.6 cells/mL and 45217.2 cells/mL and 30219.5 cells/mL and 27497.1 cells/mL and 16597.5 cells/mL | CD45+ GR-1+ cells/mL in the peritoneal cavity (mouse TNF [2]; 100mg/kg): 11514.8 cells/mL and 33134.0 cells/mL and 13657.2 cells/mL and 18518.9 cells/mL and 17977.4 cells/mL and 18837.9 cells/mL and 21785.8 cells/mL and 22316.6 cells/mL | CD45+ GR-1+ cells/mL in the peritoneal cavity (mouse TNF [2]; 300mg/kg): 6821.7 cells/mL and 12941.2 cells/mL and 5881.9 cells/mL and 6788.4 cells/mL and 5482.5 cells/mL and 47242.4 cells/mL and 15367.3 cells/mL and 2338.2 cells/mL | dose with significant inhibition of neutrophil recruitment (mouse TNF [2]; oral, murine TNF i.p., CD45+GR1+ cells): 10 mg/kg | concentration at 0.5 h ([3]; 10mg/kg, human TNF neutrophilia model, individual mice, 0.5h post dose, read-out: Total exposure): 474.6 nM and 924.2 nM and 1089.9 nM | concentration at 0.5 h ([3]; 10mg/kg, human TNF neutrophilia model, individual mice, read-out: Free exposure): 26.2 nM and 11.4 nM and 22.2 nM | concentration at 0.5 h ([3]; 10mg/kg, mouse TNF neutrophilia model, individual mice, 0.5h post dose, read-out: Total exposure): 1244.4 nM and 1494.9 nM | concentration at 0.5 h ([3]; 10mg/kg, mouse TNF neutrophilia model, individual mice, read-out: Free exposure): 29.2 nM and 29.9 nM | concentration at 1 h ([3]; 10mg/kg, individual mice, read-out: free exposure 1h post dose): 2.5 nM and 2.4 nM and 0.6 nM and 1.0 nM and 1.8 nM and 4.0 nM and 2.1 nM and 2.3 nM | concentration at 1 h ([3]; 10mg/kg, individual mice, read-out: total exposure 1h post dose): 102.2 nM and 99.4 nM and 24.6 nM and 40.4 nM and 74.6 nM and 166.9 nM and 86.4 nM and 96.3 nM | concentration at 0.5 h ([3]; 30mg/kg, human TNF neutrophilia model, individual mice, 0.5h post dose, read-out: Total exposure): 10561.3 nM and 11259.5 nM and 3572.5 nM | concentration at 0.5 h ([3]; 30mg/kg, human TNF neutrophilia model, individual mice, read-out: Free exposure): 85.7 nM and 253.5 nM and 270.2 nM | concentration at 0.5 h ([3]; 30mg/kg, mouse TNF neutrophilia model, individual mice, 0.5h post dose, read-out: Total exposure): 7504.0 nM and 10604.5 nM | concentration at 0.5 h ([3]; 30mg/kg, mouse TNF neutrophilia model, individual mice, read-out: Free exposure): 239.5 nM and 180.1 nM | concentration at 1 h ([3]; 30mg/kg, individual mice, read-out: free exposure 1h post dose): 92.9 nM and 80.2 nM and 78.8 nM and 67.6 nM and 46.9 nM and 54.7 nM and 89.2 nM | concentration at 1 h ([3]; 30mg/kg, individual mice, read-out: total exposure 1h post dose): 3868.9 nM and 3340.4 nM and 3284.9 nM and 2814.8 nM and 1955.1 nM and 2278.1 nM and 3715.9 nM | concentration at 0.5 h ([3]; 100mg/kg, human TNF neutrophilia model, individual mice, 0.5h post dose, read-out: Total exposure): 23486.3 nM and 36904.4 nM | concentration at 0.5 h ([3]; 100mg/kg, human TNF neutrophilia model, individual mice, read-out: Free exposure): 698.5 nM and 563.7 nM | concentration at 0.5 h ([3]; 100mg/kg, mouse TNF neutrophilia model, individual mice, 0.5h post dose, read-out: Total exposure): 80513.8 nM and 31681.7 nM | concentration at 0.5 h ([3]; 100mg/kg, mouse TNF neutrophilia model, individual mice, read-out: Free exposure): 760.4 nM and 1932.3 nM | concentration at 1 h ([3]; 100mg/kg, individual mice, read-out: free exposure 1h post dose): 700.8 nM and 684.7 nM and 194.3 nM and 787.1 nM and 495.2 nM and 309.3 nM and 1017.0 nM and 852.7 nM | concentration at 1 h ([3]; 100mg/kg, individual mice, read-out: total exposure 1h post dose): 29201.0 nM and 28529.7 nM and 8095.9 nM and 32795.2 nM and 20631.9 nM and 12886.1 nM and 42373.7 nM and 35527.1 nM | Cave post 1st dose (free) ([3]; 150 mg/kg B.I.D., CAIA model): 307 ± 74 nM | Cave post 1st dose total ([3]; 150 mg/kg B.I.D., CAIA model): 12,808 ± 3,070 nM | Free UCB-9260, 1 hour [3, 4]: 535.0 nM and 406.9 nM and 100.9 nM and 971.5 nM and 479.3 nM | Free UCB-9260, 6 hour [3, 4]: 368.0 nM and 6.0 nM and 50.3 nM and 428.5 nM and 99.9 nM | Total UCB-9260, 1 hour [3, 4]: 22.292 µM and 16.9554 µM and 4.206 µM and 40.4784 µM and 19.9726 µM and 13.3543 µM | Total UCB-9260, 6 hour [3, 4]: 15.3347 µM and 0.2521 µM and 2.096 µM and 17.8525 µM and 4.1624 µM and 34.4762 µM | concentration at 0.5 h ([3]; 300mg/kg, human TNF neutrophilia model, individual mice, 0.5h post dose, read-out: Total exposure): 57489.1 nM and 49482.4 nM | concentration at 0.5 h ([3]; 300mg/kg, human TNF neutrophilia model, individual mice, read-out: Free exposure): 996.6 nM and 1379.7 nM | concentration at 0.5 h ([3]; 300mg/kg, mouse TNF neutrophilia model, individual mice, 0.5h post dose, read-out: Total exposure): 47166.3 nM and 48883.6 nM | concentration at 0.5 h ([3]; 300mg/kg, mouse TNF neutrophilia model, individual mice, read-out: Free exposure): 1511.9 nM and 1132.0 nM | concentration at 1 h ([3]; 300mg/kg, individual mice, read-out: free exposure 1h post dose): 551.7 nM and 816.2 nM and 450.0 nM and 187.4 nM and 584.7 nM and 1013.9 nM and 538.9 nM and 1275.4 nM | concentration at 1 h ([3]; 300mg/kg, individual mice, read-out: total exposure 1h post dose): 22987.2 nM and 34009.1 nM and 18750.9 nM and 7806.7 nM and 24360.9 nM and 42244.6 nM and 22455.4 nM and 53141.6 nM | concentration at 0.5 h ([3]; Balb/c, mouse, blood, oral, 10 mg/kg, 10 mg/kg p.o., human TNF neutrophilia model, mean n=3 ± s.e.m., read-out: Blood concentration 0.5h post dose total): 830 ± 184 nM | concentration at 0.5 h ([3]; Balb/c, mouse, blood, oral, 10 mg/kg, 10 mg/kg p.o., mouse TNF neutrophilia model, Fu 2.4%, read-out: Blood concentration 0.5h post dose (free)): 32 ± 2 nM | concentration at 0.5 h ([3]; Balb/c, mouse, blood, oral, 10 mg/kg, 10 mg/kg p.o., mouse TNF neutrophilia model, mean n=3 ± s.e.m., read-out: Blood concentration 0.5h post dose total): 1320 nM | concentration at 0.5 h ([3]; Balb/c, mouse, blood, oral, 10 mg/kg, mouse TNF neutrophilia model, individual mice, 0.5h post dose, read-out: Total exposure): 1220 nM

From article PMC6923382, “Small molecules that inhibit TNF signalling by stabilising an asymmetric form of the trimer” (Nature Communications, 2019)
